Measured values as given in patent publication US12048679B2, “P53-destabilizing protein associated with proto-oncogene stemness as a therapeutic target and inhibitors thereof for use in treatment of cancer” (University of Southern California, priority 2021, dated 2024).
Entries after “also recorded” stand apart in the source; their conditions may differ.

Key:
[1] = system: CD133-negative TICs / CD133− Huh7 cells; test: Viability screening, CD133-negative control cells; assay type: cell-based; settings: FIG. 7C middle
[2] = system: CD133-positive TICs / CD133+ Huh7 cells; test: Viability screening, CD133-positive cells; assay type: cell-based; settings: FIG. 7C middle
primary hepatocytes = test: Viability of primary hepatocytes; assay type: cell-based; settings: FIG. 7C middle
Description: (§1) FIGS. 7A-7G depict that activated NOTCH can be targeted by small molecule inhibitors. • (7A) Analyses of 3D structure of TBC1D15-NOTCH1 interaction identified TBC1D15 N terminal region docking with a.a.1805-2113 of NOTCH1. […] See SEQ ID NOs:6-12 and 1, as depicted. Both were labeled with FITC and used with recombinant TBC1D15 for fluorescence polarization assay. The mutant served as a negative control. […] HA-NUMB-3D is HA-tagged phosphor-mimetic mutant of NUMB protein wherein three serine resides of phosphorylation sites are all replaced with phosphor-mimetic amino acid, D (aspartic acid), to have constitutively phosphorylated status of NUMB protein that reduce the binding ability between NOTCH and NUMB. […] We then tested the therapeutic efficacy of the Inhibitor A in the PDX model of HCC. When the two oncogenic targets were restored by use of AAV vector-mediated co-transduction of both activated N1ICD and phosphormimetic NUMB, the tumor-killing effect of Inhibitor A was negated. Inhibitor A's tumor killing effects are largely dependent upon the inhibition of NOTCH activation and suppressing NUMB phosphorylation status.

[3] = system: p53, N1ICD and NANOG protein levels; test: Immunoblots of xenograft tumors; assay type: in vivo, NSG mice; settings: Inhibitor A-treated xenograft tumors, FIG. 7G
Description: as §1
PDX mice were treated with the optimum dosing schedule. We monitored tumor sizes weekly three weeks post-transplantation for a total of 4 weeks (until the end of week 7). (If the tumor size reaches a diameter of ≥1.5 cm before 7 wk, we euthanized the mice per the IACUC guideline for tumor-bearing mice.) Our prior experience with the untreated HCC PDX model is 5-7 weeks are needed to generate tumors of the desired size (FIG. 7F). Experimental animals were euthanized at the end of the seven weeks study period and all tumor tissues were collected for histology for tumor characterization. Immunoblots were used to detect levels of for NANOG, TBC1D15, NICD, HES1 or HEY, CD133, p53, NUMB, and pS265-NUMB (FIG. 7G). Immunohistochemistry analysis was performed to monitor the expression of CD133, NANOG, p53, and Ki67.

NANOG-GFP reporter = NANOG-GFP reporter in Huh7 cell line, FACS; assay type: cell-based; settings: FIG. 7C right
dsRed-labeled TICs = test: Tumor growth of dsRed-labeled TICs transplanted subcutaneously into NSG mice; assay type: in vivo; settings: for tumors with fluorescence emission (dsRed imaging): FIG. 7E
Description: as §1
We tested the therapeutic efficacy of Inhibitor A in the patient-derived xenograft (PDX) model of HCC. […] A separate pharmacokinetic study was conducted at three doses (10, 20, 40 mg/kg) administered i.p. into NSG mice to determine blood and tissue levels of the Inhibitor and tissue histology. From these studies, we assessed pharmacokinetic, toxicity, and efficacy data to select an optimal dosing scheme.

[4] = biological target: T1, TBC1D15-NOTCH interaction (Homo sapiens, UniProt Q8TC07); test: Fluorescence polarization assay of FITC-tagged NOTCH1 PEST/STR domain peptide with recombinant TBC1D15; assay type: binding; settings: FIG. 7C left
T1 sequence (Q8TC07 1-691): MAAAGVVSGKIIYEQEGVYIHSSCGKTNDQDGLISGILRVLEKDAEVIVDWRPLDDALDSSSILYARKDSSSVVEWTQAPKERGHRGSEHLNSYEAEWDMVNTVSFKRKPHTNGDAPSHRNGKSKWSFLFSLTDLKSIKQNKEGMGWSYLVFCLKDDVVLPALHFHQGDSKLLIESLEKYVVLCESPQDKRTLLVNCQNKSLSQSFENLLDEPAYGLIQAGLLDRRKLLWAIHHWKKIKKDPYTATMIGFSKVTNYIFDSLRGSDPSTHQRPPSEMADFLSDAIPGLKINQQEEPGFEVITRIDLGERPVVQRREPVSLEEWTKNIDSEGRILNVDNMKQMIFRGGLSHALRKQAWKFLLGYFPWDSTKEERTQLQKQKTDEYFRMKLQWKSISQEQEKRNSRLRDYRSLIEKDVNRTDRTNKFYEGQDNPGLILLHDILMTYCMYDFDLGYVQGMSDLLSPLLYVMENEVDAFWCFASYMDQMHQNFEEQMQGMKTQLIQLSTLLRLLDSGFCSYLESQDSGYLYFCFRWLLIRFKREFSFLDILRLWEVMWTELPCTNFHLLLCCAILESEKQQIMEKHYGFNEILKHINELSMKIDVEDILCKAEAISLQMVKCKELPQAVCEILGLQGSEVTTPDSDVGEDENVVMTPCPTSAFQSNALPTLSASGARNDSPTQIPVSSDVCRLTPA
Description: FIGS. 7A-7G depict that activated NOTCH can be targeted by small molecule inhibitors. • (7A) Analyses of 3D structure of TBC1D15-NOTCH1 interaction identified TBC1D15 N terminal region docking with a.a.1805-2113 of NOTCH1. […] See SEQ ID NOs:6-12 and 1, as depicted. Both were labeled with FITC and used with recombinant TBC1D15 for fluorescence polarization assay. The mutant served as a negative control. […] HA-NUMB-3D is HA-tagged phosphor-mimetic mutant of NUMB protein wherein three serine resides of phosphorylation sites are all replaced with phosphor-mimetic amino acid, D (aspartic acid), to have constitutively phosphorylated status of NUMB protein that reduce the binding ability between NOTCH and NUMB. […]
In some embodiments, an inhibitor of TBC1D15 is a compound that inhibits binding of TBC1D15 with NOTCH, or inhibits the interaction between TBC1D15 and NOTCH. […] In yet another aspect, the inhibitor of TBC1D15 can be identified through a fluorescence polarization assay, wherein a fluorophore-labeled, binding domain of NOTCH1 (e.g., the STR domain or the PEST domain, or a peptide fragment thereof, within NICD) would have an increased fluorescence polarization (FP) when it is non-covalently bound to TBC1D15, as depicted in FIG. 7B, or a decreased FP when it is not bound to TBC1D15 due to the presence of an inhibitor of TBC1D15. […]

[5] = system: HEY1-CFP reporter (NOTCH-CFP); test: HEY1-CFP (NOTCH-CFP) reporter in Huh7 cell line, FACS; assay type: cell-based; settings: FIG. 7C right
patient HCC = test: Patient-derived xenograft (PDX) model of HCC in NSG mice; assay type: in vivo
Description: as §1
PDX mice were treated with the optimum dosing schedule. We monitored tumor sizes weekly three weeks post-transplantation for a total of 4 weeks (until the end of week 7). (If the tumor size reaches a diameter of ≥1.5 cm before 7 wk, we euthanized the mice per the IACUC guideline for tumor-bearing mice.) Our prior experience with the untreated HCC PDX model is 5-7 weeks are needed to generate tumors of the desired size (FIG. 7F). […]
To test the therapeutic efficacy of the new inhibitor for its effect on TBC1D15-NICD interaction, we employed a true patient-derived xenograft (PDX) HCC model (FIG. 7F). We determined if newly identified small molecule inhibitors of the TBC1D15-NICD interaction would prevent tumor growth in the HCC PDX mouse model and specifically if this therapeutic effect was negatively affected by NICD expression, NUMB-3D expression, or the co-expression of NICD and NUMB-3D.

[6] = system: NOTCH1 (NICD level) in CD133(+) or (−) TICs; test: NOTCH1 processing: NICD produced after EDTA and DAPT treatment, Western blot; assay type: cell-based; settings: 20 μM DAPT (4 h) with 5 mM EDTA (20 min), CD133-positive and negative TICs
Method: FIGS. 1M and 1N depict that TBC1D15 affects NOTCH1 processing. • (1M) Western blot analysis for expression of endogenous NOTCH1 and N1ΔE-myc tag in CD133-positive and negative TICs, transfected with N1ΔE-FL and N1ΔE-ΔPEST and treated with vehicle or 20 μM DAPT (for 4 h), and 5 mM EDTA (for 20 min). • (1N) Western blot analysis for endogenous NOTCH1 and N1ΔE-myc tag in CD133-positive and negative TICs, transfected with N1ΔE-FL, N1ΔE-ΔPEST, and N1ΔE-V1745L (inhibition of gamma-secretase cleavage) and treated with vehicle or 20 μM DAPT.
Pin1 is known to promote tumor formation by binding to the NOTCH/NICD STR domain and regulating its activity. To determine how TBC1D15 affects NOTCH1 activity, we tested whether it regulates NOTCH1 processing through a combination of a disintegrin and metalloproteinase (ADAM) 17 and γ-secretase. We overexpressed a membrane-tethered, ligand-independent wild type NOTCH1, a NOTCH1 derivative [NΔE, that is constitutively cleaved by γ-secretase, releasing active NICD (Rustighi et al., EMBO Mol Med 6, 99-119. 10.1002/emmm.201302909)], NΔE-ΔPEST, and NΔE-V1745L in CD133(+) or (−) TICs. We then analyzed the effects of TBC1D15 on endogenous NOTCH1 processing by measuring the amount of NICD produced after ethylenediaminetetraacetic acid (EDTA) and DAPT treatment in vitro.

Row | Structure (SMILES) | toxicity to CD133-negative cells [1] | toxicity to CD133-positive cells [2] | toxicity to primary hepatocytes (primary hepatocytes) | N1ICD protein level in xenograft tumors [3] | NANOG protein level in xenograft tumors [3] | p53 protein level in xenograft tumors [3] | NANOG-GFP / NANOG promoter reporter activity (NANOG-GFP reporter) | tumors with fluorescence emission (dsRed imaging) (dsRed-labeled TICs; 10 mg/kg dose) | inhibition of tumor growth (dsRed-labeled TICs; 40 mg/kg i.p. 5 times a week) | effect on tumor growth (dsRed-labeled TICs; dose series, NSG mice with dsRed-labeled TICs, FIG. 7D) | tumors with fluorescence emission (dsRed imaging) (dsRed-labeled TICs; doses higher than 10 mg/kg) | inhibition of NOTCH-TBC1D15 interaction [4] | NOTCH-CFP / HEY1 promoter reporter activity [5] | growth suppression of patient HCC after N1ICD and HA-NUMB-3D co-transduction (patient HCC; HCC tissues infected with AAV vector delivering N1ICD and HA-NUMB-3D before transplantation) | therapeutic effect under NICD overexpression (patient HCC; NICD overexpression) | growth of patient HCC transplanted into NSG mice (patient HCC; PDX model, FIG. 7F) | effect on NICD level [6]
1 | O=C(O)CCC/C=C\C[C@@H]1[C@@H](CC[C@@H](O)CCc2ccccc2)[C@H](O)C[C@@H]1O [Inhibitor A, (5Z,9α, 11α, 15R)-9,11,15-Trihydroxy-17-phenyl-18,19,20-trinor-prost-5-en-1-oic acid] | not CD133^− Huh7 cells | selectively killed CD133 positive TICs; also recorded: selectively kills CD133^+ Huh7 cells | not CD133^− Huh7 cells or primary hepatocytes | reduced N1ICD and NANOG protein levels | reduced N1ICD and NANOG protein levels | elevated p53 protein level | reduced HEY1 and NANOG promoter activities; also recorded: abrogates NOTCH-CFP and NANOG-GFP reporter activities | Tumors with fluorescence emission were detected | significant inhibition of tumor growth | dose-dependent inhibitory effect | not in those treated with higher doses | effectively blocked the NOTCH-TBC1D15 interaction; also recorded: suppressed interaction between TBC1D15 and NICD; also recorded: blocked NOTCH1/3-TBC1D15 interactions | reduced HEY1 and NANOG promoter activities; also recorded: abrogates NOTCH-CFP and NANOG-GFP reporter activities | this effect largely diminished | NICD overexpression blocked the therapeutic effect | suppressed the growth of patient HCC | –
2 | C[C@H](NC(=O)Cc1cc(F)cc(F)c1)C(=O)N[C@H](C(=O)OC(C)(C)C)c1ccccc1 [DAPT, N—[N-(3,5-Difluorophenacetyl)-L-alanyl]-S-phenylglycine t-butyl ester] | – | – | – | – | – | – | – | – | – | – | – | – | – | – | – | – | no observed effect on NICD level
